Results reported in article PMC5947527 (Chemical Science, 2015).
Entries after “also recorded” stand apart in the source; their conditions may differ. Non-standard residues stand in square brackets, D forms with d. Residues, ends and D or L forms follow the SMILES beside them. *: point of attachment. NBD = O=[N+]([O-])c1ccc(*)c2nonc12; Nle = CCCC[C@H](N)C(=O)O; Ahx = NCCCCCC(=O)O

Experiments:
[1] = tested on: methicillin-sensitive Staphylococcus aureus; assay: Confocal labelling of MSSA with quantified fluorescence; type: cell-based
Method: Fig. 6 Confocal Images of compounds UBI-3 to 9 with quantified fluorescence. Panels show methicillin-sensitive Staphylococcus aureus incubated with UBI-3 to 9 (all 10 μM) with quantification of bacterial fluorescence normalized to UBI-3 (bars represent mean (±SEM), n ≥ 3, ns = not significant, *** = p < 0.001, * = p < 0.05, scale bar = 10 μm).
Fig. 8 Confocal images and quantification of cyclic variants when compared to UBI-3. Panels show methicillin-sensitive Staphylococcus aureus incubated with cyclic UBI compounds (all 10 μM) with quantification of bacterial fluorescence normalized to UBI-3 (bars represent mean (±SEM), n ≥ 3, ns = not significant, ** = p < 0.01, scale bar = 10 μm).
Bacterial Culture and Labelling: Bacteria used were K. pneumoniae (ATCC BAA1706) ATCC, E. coli (ATCC 25922) ATCC, A. baumannii (J3433) Clinical Isolate, P. aeruginosa (J3284) Clinical Isolate, Methicillin Resistant S. aureus (MRSA) (ATCC25923) ATCC and Methicillin Sensitive S. aureus (MSSA) (ATCC 252) ATCC. All bacteria were grown on Lysogeny broth (LB) agar and from a single bacterial colony placed into 10ml of LB and incubated at 37°C for 16 hours in an orbital shaker.
Cultures were centrifuged at 4000rpm for 5 minutes and the pellet resuspended in 1ml phosphate buffered saline (PBS, Life Technologies). Following three further washes in PBS the cultures were reconstituted to 1 OD595 nm. Bacteria were counterstained with 5µM Syto 82 orange fluorescent nucleic acid stain (Invitrogen, CA, USA) in a shaking heat block at 37 °C for 20 minutes. For FCFM bacteria were stained with 1µM Calcein AM (Sigma, MO, USA) for 30 minutes at 37 °C. Counterstained bacteria were washed in PBS to remove excess dye. […]
(§1) Confocal Analysis and Fluorescence Quantification: 8-Well Lab-Tek II Confocal Chambers (VWR, PA, USA) were coated in fibronectin (for neutrophil experiments) or poly-d-lysine (for bacteria) at 37 °C for 20 minutes, then washed in PBS prior to bacterial innoculation. For co-culture assays, neutrophils were seeded on fibronectin coated wells at 1 x 10^5 neutrophils per well for 20 minutes and non-adherent neutrophils aspirated. Bacteria were added to each chamber to a final concentration of 0.5 OD595 nm with the desired final concentration of Smartprobe. A laser-scanning confocal imaging system (LSM510; Carl Zeiss, Jena, Germany), incorporating an upright Axioskop FS2 microscope (63× objective) was used for image acquisition and processing. Exposure to 488 nm light was limited to 5% of the maximum laser power in order to minimize toxicity. ‘Green’ fluorescence (for FAM and NBD) was excited with a dedicated 488 nm line and emitted light detected with meta detector (500-530 nM).
(§2) Syto nuclear and dyes were excited with a dedicated 543 nm line, and emitted light detected with meta detector (570-610 nM). Fields of view were chosen based on the counterstain and at least three fields of view were recorded for each condition. For affinity assays, following initial imaging, the fluid was aspirated and two gentle washes with PBS were performed. The chamber was re-imaged on confocal.
(§3) Analysis was with ImageJ (version 1.46r, National Institutes of Health, USA); the Syto channel was automatically thresholded (MaxEntropy, with a set threshold 0-47) and an ROI generated from this. The […]
(§4) mean fluorescence intensity on the probe channel within this ROI was quantified. Data presented represents the mean of three experiments, from each of which three separate fields of view were assessed. All experiments were performed at least three times unless otherwise stated and results expressed as mean ± SEM. Data was analysed by unpaired t-test and significance was determined as p<0.05 (GraphPad Prism version 5.01 for Windows, GraphPad Software, San Diego California USA).
Ex vivo Human Lung and FCFM Procedure: Human lung samples were obtained from patients undergoing surgical resection for lung carcinoma. All images were obtained on sections of normal lung […]

[2] = tested on: Methicillin sensitive S. aureus, K. pneumoniae and P. aeruginosa; assay: Bacterial affinity: fluorescence retention following a PBS wash (confocal); type: cell-based; conditions: 10 µM, two gentle PBS washes, three bacterial species, n=3
Method: Three compounds (UBI-3, UBI-5 and UBI-10) were assessed for further evaluation. […] In vitro affinity of bacterial binding was assessed by incorporating a wash step in the live confocal imaging protocol with a panel of bacteria with the ‘wash-off’ representing a surrogate indicator of Smartprobe-bacterial labelling affinity. […] UBI-10, therefore, was assessed further in a clinically relevant biological system.
Figure S4. Quantified fluorescence of confocal microscopy images of the compounds UBI-3, UBI-5 and UBI-10 on three bacteria and fluorescence retention following a PBS wash. Quantification of fluorescence intensity of (A) Methicillin sensitive S. aureus, (B) K. pneumoniae and (C) and P. […]
intensity following a PBS wash. […]
as §1, §2, §3, §4
(§5) Ex vivo Human Lung and FCFM Procedure: Human lung samples were obtained from patients undergoing surgical resection for lung carcinoma. All images were obtained on sections of normal lung away from the cancerous growth. Informed consent was obtained and the study was approved by the Regional Ethics Committee. Samples were taken fresh from the operating theatre, dissected into 4mm sections and placed in wells of 96 well plate. Bacteria were pre-labelled with Smartprobe or Calcein AM and co-cultured in the well with a maximum volume of 100µl. […]

[3] = tested on: bacteria in ex vivo human lung tissue; assay: Fibered confocal fluorescence microscopy (FCFM) of labelled bacteria on ex vivo human lung tissue; conditions: 10 μM, bacteria pre-labelled, 488 nm FCFM, n = 3
Method: Since NBD is also excited at 488 nm, the utility and detection of the Smartprobes with FCFM was next evaluated. […] These were then delivered onto ex vivo human lung tissue fragments.
Fig. 10 UBI-10 can be used to image bacteria in ex vivo human lung tissue by fibered confocal fluorescence microscopy (FCFM). FCFM imaging of bacteria in suspension (upper panels) or when co-incubated with ex vivo human lung tissue (lower panels). […] All compounds at 10 μM, n = 3. […]
as §4
as §5, with “plate.” for “plate. Bacteria were pre-labelled with Smartprobe or Calcein AM and co-cultured in the well with a maximum volume of 100µl.”

[4] = 0.5 μM to 50 μM, methicillin sensitive S. aureus

Row | Structure (SMILES) | concentration dependence of bacterial labelling [1, 4] | fluorescence following labelling and a PBS wash [2] | detection of labelled bacteria by FCFM on ex vivo human lung tissue [3] | relative fluorescence of labelled bacteria compared with the other compounds [1, 4] | bacterial labelling (fluorescence compared with UBI-3) ([1]; MSSA, 10 μM, fluorescence normalized to UBI-3, mean ± SEM, n ≥ 3)
1 | CCCC[C@H](NC(=O)[C@H](CCCNC(=N)N)NC(=O)[C@H](CCCNC(=N)N)NC(=O)[C@H](CCCCN)NC(=O)[C@H](C)NC(=O)[C@H](CCCNC(=N)N)NC(=O)CNC(=O)[C@@H](NC(=O)CCCCCNc1ccc([N+](=O)[O-])c2nonc12)[C@@H](C)O)C(=O)N[C@@H](CCC(N)=O)C(=O)N[C@@H](Cc1ccc(O)cc1)C(=O)N[C@@H](CC(N)=O)C(=O)N[C@@H](CCCNC(=N)N)C(=O)N[C@@H](CCCNC(=N)N)C(N)=O [UBI-3] ({NBD-Ahx}-TGRAKRR[Nle]QYNRR-NH2) | concentration dependent manner; also recorded: concentration dependent increase in bacterial fluorescence | significantly lower fluorescence | immediately lost their fluorescent signal; also recorded: can image bacteria in suspension but not in the presence of ex vivo human lung |  | 
2 | CCCC[C@@H]1NC(=O)[C@H](CCCNC(=N)N)NC(=O)[C@H](CCCNC(=N)N)NC(=O)[C@H](CCCCN)NC(=O)[C@H](C)NC(=O)[C@H](CCCNC(=N)N)NC(=O)CNC(=O)[C@H]([C@@H](C)O)NC(=O)[C@@H](NC(=O)CCCCCNc2ccc([N+](=O)[O-])c3nonc23)CCCCNC(=O)CNC(=O)[C@H](CCCNC(=N)N)NC(=O)[C@H](CCCNC(=N)N)NC(=O)[C@H](CC(N)=O)NC(=O)[C@H](Cc2ccc(O)cc2)NC(=O)[C@H](CCC(N)=O)NC1=O [UBI-10] | concentration dependent manner; also recorded: concentration dependent increase in bacterial fluorescence | retains a significant fluorescence intensity | readily identified above elastin autofluorescence; also recorded: can image bacteria by FCFM in the presence of ex vivo human lung | higher than UBI-3 or UBI-5 labelled bacteria; also recorded: higher fluorescence (per molar equivalents) at all concentrations tested | significantly higher signal; also recorded: improved bacterial labelling
